Source: publication PMC8911640, “Synthesis and Structure–Activity Relationship of Thioacetamide-Triazoles against Escherichia coli” (Molecules, 2022)
Values after ≈ are worked out from the molar mass of the structure shown. Read-outs that look alike come from different tables or passages of the source.

Legend:
E. coli K12 MG1655 = experiment: MIC testing by CLSI broth microdilution in M9-based minimal media ATCC 2511, with or without methionine; type: cell-based, Escherichia coli; conditions: for MIC90: Escherichia coli; for antibacterial activity against E. coli in words: E. coli K12
Description: To explore the SAR around the right hand aryl portion of the TAT series (Table 1), compounds were evaluated for their in vitro antibacterial activity against E. coli in the M9-based minimal media ATCC 2511. […]. An MIC shift between the two medias was used to indicate that antibacterial activity of the compounds remained on target, and this was happily seen with all of the most MIC active compounds generated in this study. Within the first series of compounds in Table 1, modifications to the phenyl ring are generally well tolerated. MICs remain within 2-fold of the initial hit 1 for the fluoro- and cyano- substituted compounds 1–8. […]. Incorporating the electron-donating group -OMe and sterically bulky iodine group in both ortho and para position, 17–20, maintained activity, whereas the introduction of the strong electron-withdrawing -CF3 group, 21 and 22, led to poorer MIC activity. […] The phenyl ring isosteres—thiazoles 25 and 26—both retained good MIC activity. Adding a methyl branch to the thioacetamide linker 28 and 29 led to a striking loss of activity. Replacement of the aryl group with the aliphatic groups cyclohexyl 31, cyclopentyl 32, tert-butyl groups 33 all reduced activity.
MICs were determined following CLSI broth microdilution susceptibility M100 guidelines. Compound solutions were prepared in DMSO and serially diluted 1:2 in 100 μL/well in 96 well round-bottom plates. E. coli K12 MG1655 was acquired from ATCC and strictly maintained in the M9-based media ATCC 2511. ATCC 2511 was also used for all further cultivation and MIC testing. Bacteria were grown from a single colony to a mid-log OD600 and frozen in 0.5 mL aliquots. These aliquots were used to directly inoculate the assay plates by diluting to an OD600 of 0.001 and plating 100 μL per well, allowing for ~10^5 CFU to be added to each well.

[1] = No Supplement (N.S.), ATCC 2511 media, 16 h, 37 °C
[2] = No Supplement (N.S.), ATCC 2511 media, 16 h, 37 °C, read-out: E. coli K12 MIC90
[3] = MG1655, read-out: E. coli K12 MIC90
[4] = 16 h, read-out: E. coli K12 MIC90

Row | Molecule | MIC90 (E. coli K12 MG1655; [2]) | MIC90 (E. coli K12 MG1655; [3]) | melting point | other results
1 | 3-[(1H-1,2,3-triazol-4-yl)sulfanyl]-N-(2-fluorophenyl)propenamide [Compound 30] | – | – | – | E. coli K12 MIC90 (E. coli K12 MG1655; +20 μg/mL Methionine): 25 µg/mL; E. coli K12 MIC90 (E. coli K12 MG1655; [1]): 6.3 µg/mL
2 | O=C(N[C@H](CO)[C@H](O)c1ccc([N+](=O)[O-])cc1)C(Cl)Cl [Chloramphenicol, reference compound] | 1.6 µg/mL (≈ 4.95 µM) | – | – | –
3 | O=C(CSc1c[nH]nn1)Nc1cccc(F)c1 [Compound 7, 2-[(1H-1,2,3-triazol-4-yl)sulfanyl]-N-(3-fluorophenyl)acetamide] | 1.6 µg/mL (≈ 6.34 µM) | 12.5 µg/mL (≈ 49.5 µM) | – | E. coli K12 MIC90 (E. coli K12 MG1655; [1]): ≤ 3.1 µg/mL
4 | N#Cc1cccc(NC(=O)CSc2c[nH]nn2)c1 [Compound 8, 2-[(1H-1,2,3-triazol-4-yl)sulfanyl]-N-(3-cyanophenyl)acetamide] | 3.1 µg/mL (≈ 12 µM) | 12.5 µg/mL (≈ 48.2 µM) | 158 to 159 °C | –
5 | O=C(CSc1c[nH]nn1)Nc1ccncc1 [Compound 10] | 12.5 µg/mL (≈ 53.1 µM) | 50 µg/mL (≈ 213 µM) | 187 to 188 °C | fold change (loss) in MIC activity relative to initial hit 1 (E. coli K12 MG1655; E. coli K12, no supplement): 8 fold
6 | O=C(CSc1cnn[nH]1)Nc1ccccc1 [Compound 11] | 1.6 µg/mL (≈ 6.83 µM) | 6.3 µg/mL (≈ 26.9 µM) | – | –
7 | N#Cc1cccnc1NC(=O)CSc1c[nH]nn1 [Compound 12] | 25 µg/mL (≈ 96 µM) | – | 113 to 114 °C | –
8 | O=C(CSc1c[nH]nn1)Nc1ncccc1F [Compound 13, 2-[(1H-1,2,3-triazol-4-yl)sulfanyl]-N-(3-fluoropyridin-2-yl)acetamide] | 6.3 µg/mL (≈ 24.9 µM) | 25 µg/mL (≈ 98.7 µM) | 99 to 100 °C | –
9 | O=C(CSc1c[nH]nn1)Nc1ccc(F)cn1 [Compound 14, 2-[(1H-1,2,3-triazol-4-yl)sulfanyl]-N-(5-fluoropyridin-2-yl)acetamide] | 3.1 µg/mL (≈ 12.2 µM) | 12.5 µg/mL (≈ 49.4 µM) | 151 to 153 °C | –
10 | N#Cc1ccc(NC(=O)CSc2c[nH]nn2)cn1 [Compound 15, 2-[(1H-1,2,3-triazol-4-yl)sulfanyl]-N-(6-cyanopyridin-3-yl)acetamide] | 6.3 µg/mL (≈ 24.2 µM) | 50 µg/mL (≈ 192 µM) | 198 to 199 °C | –
11 | N#Cc1ccc(NC(=O)CSc2c[nH]nn2)nc1 [Compound 16, 2-[(1H-1,2,3-triazol-4-yl)sulfanyl]-N-(5-cyanopyridin-2-yl)acetamide] | 3.1 µg/mL (≈ 11.9 µM) | 6.3 µg/mL (≈ 24.2 µM) | 118 to 119 °C | –
12 | COc1ccccc1NC(=O)CSc1c[nH]nn1 [Compound 17, 2-[(1H-1,2,3-triazol-4-yl)sulfanyl]-N-(2-methoxyphenyl)acetamide] | 6.3 µg/mL (≈ 23.8 µM) | – | 99 to 100 °C | –
13 | COc1ccc(NC(=O)CSc2c[nH]nn2)cc1 [Compound 18, 2-[(1H-1,2,3-triazol-4-yl)sulfanyl]-N-(4-methoxyphenyl)acetamide] | 3.1 µg/mL (≈ 11.7 µM) | 12.5 µg/mL (≈ 47.3 µM) | 130 to 131 °C | –
14 | O=C(CSc1c[nH]nn1)Nc1ccccc1I [Compound 19, 2-[(1H-1,2,3-triazol-4-yl)sulfanyl]-N-(2-iodophenyl)acetamide] | 3.1 µg/mL (≈ 8.61 µM) | – | 122 to 124 °C | –
15 | O=C(CSc1c[nH]nn1)Nc1ccc(I)cc1 [Compound 20, 2-[(1H-1,2,3-triazol-4-yl)sulfanyl]-N-(4-iodophenyl)acetamide] | 6.3 µg/mL (≈ 17.5 µM) | 25 µg/mL (≈ 69.4 µM) | 166 to 168 °C | –
16 | O=C(CSc1c[nH]nn1)Nc1ccccc1C(F)(F)F [Compound 21] | 25 µg/mL (≈ 82.7 µM) | – | 83 to 85 °C | –
17 | O=C(CSc1c[nH]nn1)Nc1ccc(C(F)(F)F)cc1 [Compound 22] | 25 µg/mL (≈ 82.7 µM) | – | 163 to 165 °C | –
18 | CN(C(=O)CSc1c[nH]nn1)c1ccc(F)cc1 [Compound 23] | 25 µg/mL (≈ 93.9 µM) | – | 95 to 96 °C | –
19 | CCN(C(=O)CSc1c[nH]nn1)c1ccccc1F [Compound 24] | 12.5 µg/mL (≈ 44.6 µM) | 25 µg/mL (≈ 89.2 µM) | 82 to 83 °C | –
20 | CCOC(=O)c1cnc(NC(=O)CSc2c[nH]nn2)s1 [Compound 26, Ethyl 2-{2-[(1H-1,2,3-triazol-4-yl)sulfanyl]acetamido}thiazole-5-carboxylate] | 3.1 µg/mL (≈ 9.89 µM) | 12.5 µg/mL (≈ 39.9 µM) | 172 to 174 °C | –
21 | O=C(CSc1c[nH]nn1)Nc1ncccn1 [Compound 27] | 25 µg/mL (≈ 106 µM) | – | 136 to 138 °C | –
22 | O=C(CSc1c[nH]nn1)NC1CCCCC1 [Compound 31] | 25 µg/mL (≈ 104 µM) | – | 118 to 119 °C | –

Row | Molecule | MIC90 (E. coli K12 MG1655; [2]) | MIC90 (E. coli K12 MG1655; [3]) | melting point | other results
23 | O=C(CSc1c[nH]nn1)NC1CCCC1 [Compound 33] | 12.5 µg/mL (≈ 55.2 µM) | 25 µg/mL (≈ 110 µM) | 108 to 109 °C | –
24 | O=C(CSc1cnn[nH]1)NCc1ccccc1F [Compound 38, 2-[(1H-1,2,3-triazol-5-yl)sulfanyl]-N-(2-fluorobenzyl)acetamide] | 3.1 µg/mL (≈ 11.6 µM) | – | – | –
25 | O=C(CSc1cnn[nH]1)NCc1ccc(F)cc1 [Compound 39, 2-[(1H-1,2,3-triazol-5-yl)sulfanyl]-N-(4-fluorobenzyl)acetamide] | 6.3 µg/mL (≈ 23.7 µM) | 50 µg/mL (≈ 188 µM) | 122 to 124 °C | –
26 | O=C(CSc1cnn[nH]1)NCc1ccccn1 [Compound 40] | 12.5 µg/mL (≈ 50.1 µM) | > 50 µg/mL | – | –
27 | O=C(CSc1cnn[nH]1)NCc1cccc(F)c1 [Compound 41] | 6.3 µg/mL (≈ 23.7 µM) | – | 85 to 86 °C | –
28 | O=C(CSc1cnn[nH]1)NCc1cc(F)cc(C(F)(F)F)c1 [Compound 42] | 50 µg/mL (≈ 150 µM) | – | 82 to 84 °C | –
29 | O=C(CSc1cnn[nH]1)NCc1ccc(C(F)(F)F)cc1 [Compound 44] | 50 µg/mL (≈ 158 µM) | – | 133 to 135 °C | –
30 | O=C(CSc1cnn[nH]1)NCc1ccc(OC(F)(F)F)cc1 [Compound 45] | 100 µg/mL (≈ 301 µM) | – | 131 to 133 °C | –
31 | CN(Cc1ccccc1F)C(=O)CSc1cnn[nH]1 [Compound 46] | 50 µg/mL (≈ 178 µM) | – | – | –
32 | Cn1nnnc1SCC(=O)Nc1ccccc1 [Compound 62] | > 200 µg/mL | – | – | antibacterial activity against E. coli in words (E. coli K12 MG1655): inactive
33 | O=C(CSc1nncs1)Nc1ccccc1 [Compound 63] | > 200 µg/mL | – | 109 to 110 °C | antibacterial activity against E. coli in words (E. coli K12 MG1655): inactive
34 | Cc1nnc(SCC(=O)Nc2ccccc2)s1 [Compound 64] | > 200 µg/mL | – | 153 to 154 °C | antibacterial activity against E. coli in words (E. coli K12 MG1655): inactive
35 | Cn1nnnc1SCC(=O)Nc1ccccc1F [Compound 65] | > 200 µg/mL | – | 137 to 139 °C | antibacterial activity against E. coli in words (E. coli K12 MG1655): inactive
36 | O=C(CSc1nncs1)Nc1ccccc1F [Compound 66] | > 200 µg/mL | – | 123 to 125 °C | antibacterial activity against E. coli in words (E. coli K12 MG1655): inactive
37 | Cc1nnc(SCC(=O)Nc2ccccc2F)s1 [Compound 67] | > 200 µg/mL | – | 111 to 113 °C | antibacterial activity against E. coli in words (E. coli K12 MG1655): inactive
38 | Cn1nncc1SCC(=O)Nc1ccccc1 [Compound 68] | > 200 µg/mL | – | – | antibacterial activity against E. coli in words (E. coli K12 MG1655): inactive
39 | Cn1cc(SCC(=O)Nc2ccccc2)nn1 [Compound 69] | > 200 µg/mL | – | – | antibacterial activity against E. coli in words (E. coli K12 MG1655): inactive
40 | Cn1nncc1SCC(=O)Nc1ccccc1F [Compound 70] | > 200 µg/mL | – | – | antibacterial activity against E. coli in words (E. coli K12 MG1655): inactive
41 | Cn1cc(SCC(=O)Nc2ccccc2F)nn1 [Compound 71] | > 200 µg/mL | – | – | antibacterial activity against E. coli in words (E. coli K12 MG1655): inactive
42 | Cc1cc(NS(=O)(=O)c2ccc(N)cc2)no1 [Sulfamethoxazole, reference compound] | – | – | – | MIC90 (E. coli K12 MG1655; [4]): 0.98 µg/mL (≈ 3.87 µM)
43 | COc1cc(Cc2cnc(N)nc2N)cc(OC)c1OC [Trimethoprim, reference compound] | – | – | – | MIC90 (E. coli K12 MG1655; [4]): 0.98 µg/mL (≈ 3.38 µM)
